We go through one compound from patent publication US20240415918A1, “Polypeptide and its use as a CCK receptor agonist/antagonist” (Centre for Regenerative Medicine & Health, Hong Kong …, priority 2021, published 2024).

For one series, the system named is memory-deficient mice. The series can be described thus: New object recognition experiment, memory-deficient mice. The class given is in vivo. Particulars: intraperitoneal injection. The text has this: (§1) The new object recognition experiment is a highly validated method of cognitive memory, designed by Ennaceur & Delacour (1988) based on the exploration characteristics of rodents to new environments, and this model evaluates the memory function of the tested animal based on the length of time that the animal spends in exploring familiar objects it has seen in the environment and new objects it has not seen. […] The experiment is usually divided into three stages: 1. Adaptation period: let the animal be familiar with the experimental environment, and no objects are placed in the experimental box; 2. Familiarization period: place two identical objects in the experimental box and let the mice explore freely for 10 minutes; 3. Test period: put a new object in the experimental box to replace one of the old objects, and the positions of the objects remain unchanged. The exploration of mice was recorded with video, and the time spent in exploring the old and new objects by mice was analyzed, and the proportion of time spent in exploring the new object by mice in the test period accounting for the total time for exploring the objects was calculated, that is, the recognition index of new objects.
Adult memory-deficient mice were housed under standard conditions with free access to food and water. Our new object recognition experiment for testing memory-deficient mice mainly included the adaptation period, the familiarization period, and the test period. The experimental method was the same as Example 12.
We randomized memory-deficient mice into four groups, with one group given intraperitoneal injection of the solvent of drug as the control group, administration group 1 given intraperitoneal injection of the compound HT-267 solution, administration group 2 given intraperitoneal injection of the compound HT-177 solution, and administration group 3 given intraperitoneal injection of the compound HT-178 solution. After the adaptation and familiarization period training, we tested the recognition memory of several groups of mice in the test period experiment.

For another series, the system named is neocortex of senile mice. Description: Long-term potentiation, in vitro field potential recording of brain slices (MED64), senile mice. It is filed as cell-based. Particulars: compound injected for five minutes. The text has this: Long-term potentiation (LTP) is considered by researchers to be one of the memory mechanisms. We used an in vitro electrophysiological electrical signal recording method to investigate whether compound HT-267 can induce long-term potentiation in the neocortex of senile mice.
We used an MED64 low-noise multi-electrode recording system to record the electrical signals of brain slices cultured in vitro.

Series [1] relates to tri-transgenic Alzheimer's mice (3×Tg-AD). The series can be described thus: New object recognition experiment, Alzheimer's mice. The class given is in vivo. The note with it: intraperitoneal injection.
Excerpt: as §1
Adult male tri-transgenic Alzheimer's mice (3×Tg-AD) were housed under standard conditions with free access to food and water. […]

A short description of series [2]: Pharmacokinetics in KM mice after intravenous administration. Particulars: male, mouse, plasma, 1 mg/kg.

Molecules are shown by their SMILES.

As a reminder, the AUC(0-inf) is the area under the concentration-time curve extrapolated to infinity. A word on the Cmax: it is the maximum level reached in the sampled fluid or tissue. As a reminder, the Tmax is the time from dosing to the highest level. Broadly, the half-life is the time in which the quantity being followed falls by half. Read a high half-life as slow decline.

Regarding `CSCC[C@H](NC(=O)[C@@H](Cc1c[nH]c2ccccc12)NC(C)=O)C(=O)N[C@@H](CC(=O)O)C(=O)N[C@@H](Cc1cccc(Br)c1)C(N)=O` [HT-267, Ac-D-Trp-Met-Asp-Phe(3-Br)-NH2], the “recognition index of new objects vs control” value with memory-deficient mice is on record as “significantly higher than that of the control group”. Moreover, the “basal field potential after administration (long-term potentiation)” value with neocortex of senile mice was “enhanced, and the enhancement lasted for more than one hour”. Also, the “recognition index of new objects vs control” value in series [1] was “significantly higher than that of the control group”. In series [2], the AUC(0-inf) was determined as 302 ng·h/mL, the concentration peaked (Cmax) at 1930 ng/mL and the Tmax worked out at 1.98 min. The compound further showed a half-life in series [2] (T1/2, KM mice male, I.V. 1 mg/kg) of 96.1 min.
